1 substance from patent US8071548B2, “Method of reducing injury to mammalian cells” (Nono, Inc., priority 2002, dated 2011) can be followed below.

In data set [1] the test system is nitrotyrosine. In words: Nitrotyrosine immunostaining (peroxynitrite formation). The format is cell-based, mouse. The note with it: pretreatment, 12 h post-NMDA challenge. The method, then: Cultures were fixed with warm 4% paraformaldehyde and 4% sucrose in PBS for 20 min, permeabilized with 0.1% Triton X-100 for 10 min at 4° C., and blocked with 10% goat serum in PBS for 1 h at RT. Immunofluorescence was visualized with an inverted Nikon microscope using a 40× oil immersion lens. FITC, rhodamine and Hoechst were visualized using 465-495 excitation and 515-555 nm emission, 510-560 nm excitation and 590 nm emission, and 340 nm excitation and 510 nm emission, respectively. Active caspase 3 was labelled by incubating the cultures with a purified rabbit monoclonal anti-active caspase 3 antibody (1:300; BD PharMingen) and a fluorescein-conjugated goat anti-mouse IgG secondary antibody (1:500; Transduction Labs). Nitrotyrosine was labelled by incubating the cultures with a rabbit polyclonal α-nitrotyrosine primary antibody (1:300; Upstate) and a rhodamine-conjugated goat anti-rabbit IgG secondary antibody (1:500; Transduction Labs). AIF was labelled by incubating the cultures with an AIF antibody (1:200; Santa Cruz, (Zhang et al., 2002)) and a rhodamine-conjugated goat anti-mouse IgG secondary antibody (1:500; Transduction Labs). In some experiments, nuclei were counter-stained with Hoechst 33258 (1:5,000, Transduction Labs).

In data set [2] the test system is transient middle cerebral artery occlusion. In words: Transient MCAO, dose study of infarct size. Format: in vivo, Sprague-Dawley rats.
A short description of data set [3]: Baseline behaviours after single i.v. injection. Format: in vivo, Sprague-Dawley rats. The note with it: over 4 hours, 0.5-50 nmols/g.

On to Tat-KLSSIESDV [Tat-NR2B9c], for which the nitrotyrosine immunoreactivity result in data set [1] is given as “reduced nitrotyrosine immunoreactivity”. In addition, the “efficacy of the lowest dose versus higher doses” value in data set [2] (0.03 nmole/g, 3 h after stroke onset) was “equally effective”. The “infarct size versus control dose” value in data set [2] (0.03, 0.3, 1 or 3 nmoles/g i.v. 3 h after stroke onset, measured 24 h after MCAO onset) is on record as “significant reduction in infarct size”. Also, in data set [3], the “changes in sensory-motor, open field, or exploratory behaviour” value is “No significant changes”.
